Results reported in ChEMBL document CHEMBL5518228, “DNA Interaction and Cleavage Modes of Anthraquinone-Fused Enediynes: A Study on Tiancimycins, Yangpumicins, and Their Semisynthetic Analogues” (J Med Chem, 2024).
Active and inactive are the calls of the source. The calls are words filed in the database; no cut-off is given here.

Experiments:
Jurkat = test: Cytotoxicity against human Jurkat cells incubated for 72 hrs by CCK-8 assay; type: functional, cell-based
A549 = test: Cytotoxicity against human A549 cells incubated for 72 hrs by CCK-8 assay; type: functional, cell-based; conditions: A549, 72 h
Caco-2 = test: Cytotoxicity against human Caco-2 cells incubated for 72 hrs by CCK-8 assay; type: functional, cell-based; conditions: Caco-2, 72 h
[1] = Cytotoxicity against human KPL-4 cells incubated for 72 hrs by CCK-8 assay; type: functional, cell-based; conditions: KPL4, 72 h
[2] = Cytotoxicity against human NCM460 cells incubated for 72 hrs by CCK-8 assay; type: toxicity, cell-based
[3] = Cytotoxicity against human HUVEC cells incubated for 72 hrs by CCK-8 assay; type: toxicity, cell-based
Supercoiled DNA [4] = test: Induction of supercoiled pBR322 DNA (unknown origin) cleavage assessed as relaxation of supercoiled plasmid incubated for 1 hr in presence of DTT by SYBR I Green staining based agarose gel electrophoresis analysis; type: nucleic-acid assay
KPL-4 [5] = test: Antitumor activity against human KPL-4 cells xenografted with BALB/c mouse assessed as reduction in tumor mass at 0.05 mg/kg,iv administrated once per week for 2 weeks; type: functional, organism-based
KPL-4 [6] = test: Antitumor activity against human KPL-4 cells xenografted with BALB/c mouse assessed as reduction in tumor mass at 0.2 mg/kg,iv administrated once per week for 2 weeks; type: functional, organism-based
[7] = Toxicity in BALB/c mouse xenografted with human KPL-4 cells assessed as body weight loss at 0.2 mg/kg,iv administrated once per week for 2 weeks; type: organism-based; conditions: in vivo, 336 h
[8] = Toxicity in BALB/c mouse xenografted with human KPL-4 cells assessed as pathological damage in heart at 0.05 mg/kg,iv administrated once per week for 2 weeks by H and E staining based analysis; type: organism-based; conditions: in vivo, 336 h
[9] = Toxicity in BALB/c mouse xenografted with human KPL-4 cells assessed as pathological damage in heart at 0.2 mg/kg,iv administrated once per week for 2 weeks by H and E staining based analysis; type: organism-based; conditions: in vivo, 336 h
[10] = Toxicity in BALB/c mouse xenografted with human KPL-4 cells assessed as pathological damage in liver at 0.05 mg/kg,iv administrated once per week for 2 weeks by H and E staining based analysis; type: organism-based; conditions: in vivo, 336 h
[11] = Toxicity in BALB/c mouse xenografted with human KPL-4 cells assessed as pathological damage in liver at 0.2 mg/kg,iv administrated once per week for 2 weeks by H and E staining based analysis; type: organism-based; conditions: in vivo, 336 h
[12] = Toxicity in BALB/c mouse xenografted with human KPL-4 cells assessed as pathological damage in lung at 0.05 mg/kg,iv administrated once per week for 2 weeks by H and E staining based analysis; type: organism-based; conditions: in vivo, 336 h
[13] = Toxicity in BALB/c mouse xenografted with human KPL-4 cells assessed as pathological damage in lung at 0.2 mg/kg,iv administrated once per week for 2 weeks by H and E staining based analysis; type: organism-based; conditions: in vivo, 336 h
[14] = Toxicity in BALB/c mouse xenografted with human KPL-4 cells assessed as pathological damage in spleen at 0.05 mg/kg,iv administrated once per week for 2 weeks by H and E staining based analysis; type: organism-based; conditions: in vivo, 336 h
[15] = Toxicity in BALB/c mouse xenografted with human KPL-4 cells assessed as pathological damage in spleen at 0.2 mg/kg,iv administrated once per week for 2 weeks by H and E staining based analysis; type: organism-based; conditions: in vivo, 336 h
[16] = Toxicity in BALB/c mouse xenografted with human KPL-4 cells assessed as pathological damage in kidney at 0.05 mg/kg,iv administrated once per week for 2 weeks by H and E staining based analysis; type: organism-based; conditions: in vivo, 336 h
[17] = Toxicity in BALB/c mouse xenografted with human KPL-4 cells assessed as pathological damage in kidney at 0.2 mg/kg,iv administrated once per week for 2 weeks by H and E staining based analysis; type: organism-based; conditions: in vivo, 336 h
Supercoiled DNA [18] = test: Induction of supercoiled pBR322 DNA (unknown origin) cleavage at 50 uM incubated for 1 hr in presence of NADPH by agarose gel electrophoresis analysis; type: nucleic-acid assay
Supercoiled DNA [19] = test: Induction of supercoiled pBR322 DNA (unknown origin) cleavage at 50 uM incubated for 1 hr in presence of DTT by agarose gel electrophoresis analysis; type: nucleic-acid assay
Supercoiled DNA [20] = test: Induction of supercoiled pBR322 DNA (unknown origin) cleavage at 50 uM incubated for 1 hr in presence of GSH by agarose gel electrophoresis analysis; type: nucleic-acid assay
Supercoiled DNA [21] = test: Induction of supercoiled pBR322 DNA (unknown origin) cleavage at 50 uM incubated for 1 hr under pH 5.5 to 6.5 condition by agarose gel electrophoresis analysis; type: nucleic-acid assay
Supercoiled DNA [22] = test: Induction of supercoiled pBR322 DNA (unknown origin) cleavage at 50 uM incubated for 1 hr under pH 5.5 to 9.5 condition by agarose gel electrophoresis analysis; type: nucleic-acid assay
Supercoiled DNA [23] = test: Induction of supercoiled pBR322 DNA (unknown origin) cleavage at 50 uM incubated for 1 hr in presence of catalase under pH 7.4 condition by agarose gel electrophoresis analysis; type: nucleic-acid assay
Supercoiled DNA [24] = test: Induction of supercoiled pBR322 DNA (unknown origin) cleavage at 50 uM incubated for 1 hr in presence of DTT under pH 7.4 condition by agarose gel electrophoresis analysis; type: nucleic-acid assay
Supercoiled DNA [25] = test: Induction of supercoiled pBR322 DNA (unknown origin) cleavage at 50 uM incubated for 1 hr in presence of pyridine under pH 7.4 condition by agarose gel electrophoresis analysis; type: nucleic-acid assay
Supercoiled DNA [26] = test: Induction of supercoiled pBR322 DNA (unknown origin) cleavage at 50 uM incubated for 1 hr in presence of adriamycin by agarose gel electrophoresis analysis; type: nucleic-acid assay
Supercoiled DNA [27] = test: Induction of supercoiled pBR322 DNA (unknown origin) cleavage at 50 uM incubated for 1 hr in presence of actinomycin D by agarose gel electrophoresis analysis; type: nucleic-acid assay
Supercoiled DNA [28] = test: Induction of supercoiled pBR322 DNA (unknown origin) cleavage at 50 uM incubated for 1 hr in presence of bleomycin by agarose gel electrophoresis analysis; type: nucleic-acid assay
Supercoiled DNA [29] = test: Induction of supercoiled pBR322 DNA (unknown origin) cleavage at 50 uM incubated for 1 hr in presence of bleomycin and ferrous ion by agarose gel electrophoresis analysis; type: nucleic-acid assay
DNA = test: Induction of duplex DNA (unknown origin) cleavage assessed as DNA cleaved fragments at AT-rich region at 1 mM incubated for 6 hr in presence of DTT by agarose gel electrophoresis analysis; type: nucleic-acid assay
Calf thymus DNA [30] = test: Binding affinity to calf thymus DNA assessed as change in gibbs free energy in presence of ethidium bromide by competitive binding based fluorescence spectroscopic analysis; type: nucleic-acid assay; conditions: Bos taurus
Calf thymus DNA [31] = test: Binding affinity to calf thymus DNA assessed as DNA insertion by measuring change in gibbs free energy by fluorescence spectroscopic analysis; type: nucleic-acid assay; conditions: Bos taurus
Calf thymus DNA [32] = test: Binding affinity to calf thymus DNA assessed as DNA insertion by measuring change in gibbs free energy in presence of triggered form of compound by fluorescence spectroscopic analysis; type: nucleic-acid assay; conditions: Bos taurus

EC50 (Supercoiled DNA [4]): 17.3 nM | Activity (Supercoiled DNA [18]): inactive | Activity (Supercoiled DNA [19]): Active | Activity (Supercoiled DNA [20]): inactive | Activity (Supercoiled DNA [21]): inactive | Activity (Supercoiled DNA [22]): Active | Activity (Supercoiled DNA [23]): inactive | Activity (Supercoiled DNA [24]): inactive | Activity (Supercoiled DNA [25]): inactive | Activity (Supercoiled DNA [26]): inactive | Activity (Supercoiled DNA [27]): inactive | Activity (Supercoiled DNA [28]): Active | Activity (Supercoiled DNA [29]): Active | Activity (DNA): inactive | deltaG (Calf thymus DNA [30]): -7.98 kcal/mol | deltaG (Calf thymus DNA [31]): -23.8 kcal/mol | deltaG (Calf thymus DNA [32]): -18.1 kcal/mol
Structure (SMILES): COc1ccc2c(c1OC)C(=O)c1c3c(cc(O)c1C2=O)[C@@]12O[C@@]1([C@@H](C)O)[C@H](C#C/C=C\C#C[C@H]2O)N3
IC50 (Jurkat): 0.1 nM | IC50 (A549): 1.3 nM | IC50 (Caco-2): 37.9 nM | IC50 [1]: 0.1 nM | IC50 at 72 h [2]: 6 nM | IC50 at 72 h [3]: 6.8 nM | Activity (KPL-4 [5]): Active | Activity (KPL-4 [6]): Active | Activity [7]: Non-Toxic | Activity [8]: Non-Toxic | Activity [9]: Non-Toxic | Activity [10]: Non-Toxic | Activity [11]: Non-Toxic | Activity [12]: Non-Toxic | Activity [13]: Non-Toxic | Activity [14]: Non-Toxic | Activity [15]: Non-Toxic | Activity [16]: Non-Toxic | Activity [17]: Non-Toxic
